Assays:
MDA-MB-231 [1] = experiment: Antiproliferative activity against human MDA-MB-231 cells assessed as inhibition of cell proliferation incubated for 48 hrs by MTT assay; type: functional, cell-based; details: MDA-MB-231, 48 h
BT-549 [2] = experiment: Antiproliferative activity against human BT-549 cells assessed as inhibition of cell proliferation incubated for 24 hrs by MTT assay; type: functional, cell-based; details: BT-549, 24 h
MDA-MB-231 [3] = experiment: Antiproliferative activity against human MDA-MB-231 cells assessed as inhibition of cell proliferation incubated for 24 hrs by MTT assay; type: functional, cell-based; details: MDA-MB-231, 24 h
BT-549 [4] = experiment: Antiproliferative activity against human BT-549 cells assessed as inhibition of cell proliferation incubated for 48 hrs by MTT assay; type: functional, cell-based; details: BT-549, 48 h
[5] = Selectivity ratio of IC50 for antiproliferative activity against human MCF-10A cells assessed as inhibition of cell proliferation incubated for 24 hrs by MTT assay to IC50 for antiproliferative activity against human BT-549 cells assessed as inhibition of cell proliferation incubated for 24 hrs by MTT assay; type: toxicity, cell-based; details: MCF-10A cells versus BT-549 cells, read-out: Ratio IC50
[6] = Selectivity ratio of IC50 for antiproliferative activity against human MCF-10A cells assessed as inhibition of cell proliferation incubated for 48 hrs by MTT assay to IC50 for antiproliferative activity against human BT-549 cells assessed as inhibition of cell proliferation incubated for 48 hrs by MTT assay; type: toxicity, cell-based; details: MCF-10A cells versus BT-549 cells, read-out: Ratio IC50
[7] = Antiproliferative activity against human MCF-10A cells assessed as inhibition of cell proliferation incubated for 24 hrs by MTT assay; type: toxicity, cell-based
[8] = Selectivity ratio of IC50 for antiproliferative activity against human MCF-10A cells assessed as inhibition of cell proliferation incubated for 48 hrs by MTT assay to IC50 for antiproliferative activity against human MDA-MB-231 cells assessed as inhibition of cell proliferation incubated for 48 hrs by MTT assay; type: cell-based; details: MCF-10A cells versus MDA-MB-231 cells, read-out: Ratio IC50
[9] = Selectivity ratio of IC50 for antiproliferative activity against human MCF-10A cells assessed as inhibition of cell proliferation incubated for 24 hrs by MTT assay to IC50 for antiproliferative activity against human MDA-MB-231 cells assessed as inhibition of cell proliferation incubated for 24 hrs by MTT assay; type: cell-based; details: MCF-10A cells versus MDA-MB-231 cells, read-out: Ratio IC50
[10] = Antiproliferative activity against human MCF-10A cells assessed as inhibition of cell proliferation incubated for 48 hrs by MTT assay; type: toxicity, cell-based
BT-549 [11] = experiment: Potency index, ratio of miliusol IC50 to test compound IC50 for antiproliferative activity against human BT-549 cells assessed as inhibition of cell proliferation incubated for 48 hrs by MTT assay; type: functional
[12] = Potency index, ratio of miliusol IC50 to test compound IC50 for antiproliferative activity against human MDA-MB-231 cells assessed as inhibition of cell proliferation incubated for 48 hrs by MTT assay; type: functional

Row | Compound | IC50 (MDA-MB-231 [1]) | IC50 (BT-549 [2]) | IC50 (MDA-MB-231 [3]) | IC50 (BT-549 [4]) | selectivity ratio at 24 h [5] | selectivity ratio at 48 h [6] | IC50 at 24 h [7] | selectivity ratio at 48 h [8] | selectivity ratio at 24 h [9] | IC50 at 48 h [10] | Ratio IC50 (BT-549 [11]) | Ratio IC50 [12]
1 | CC(C)=CCC/C(C)=C/[C@H]1OC(=O)C[C@]12C[C@H](OC(=O)Cc1ccc(NC(=O)C(C)(C)C)cc1)C=CC2=O | 0.57 µM | 1.75 µM | 1.36 µM | 0.8 µM |  |  |  |  |  |  |  | 
2 | CC(C)=CCC/C(C)=C/[C@H]1OC(=O)C[C@]12C[C@H](OC(=O)/C=C/C=C/c1ccc3c(c1)OCO3)C=CC2=O | 1.66 µM | 19.4 µM | 8.85 µM | 2.87 µM |  |  |  |  |  |  |  | 
3 | CC(C)=CCC/C(C)=C/[C@H]1OC(=O)C[C@]12C[C@H](OC(=O)Cn1nnc3ccccc31)C=CC2=O | 2.41 µM | 8.31 µM | 6.35 µM | 3.9 µM |  |  |  |  |  |  |  | 
4 | CC(=O)O[C@H]1C(=O)[C@@]2(C)[C@H]([C@H](OC(=O)c3ccccc3)[C@]3(O)C[C@H](OC(=O)[C@H](O)[C@@H](NC(=O)c4ccccc4)c4ccccc4)C(C)=C1C3(C)C)[C@]1(OC(C)=O)CO[C@@H]1C[C@@H]2O [PACLITAXEL] | 0.45 µM | 0.28 µM | 1.72 µM | 0.05 µM | 1.18 | 1.8 | 0.33 µM | 0.2 | 0.19 | 0.09 µM |  | 
5 | CC(C)=CCC/C(C)=C/[C@H]1OC(=O)C[C@]12C[C@H](OC(=O)Cn1cnc3c(=O)n(C)c(=O)n(C)c31)C=CC2=O | 4.42 µM | 5.38 µM | 2.84 µM | 3.47 µM |  |  |  |  |  |  |  | 
6 | CC(C)=CCC/C(C)=C/[C@H]1OC(=O)C[C@]12C[C@H](OC(=O)Cc1ccc(F)cc1Cl)C=CC2=O | 5.07 µM | 4.93 µM | 3.07 µM | 2.14 µM |  |  |  |  |  |  |  | 
7 | CC(C)=CCC/C(C)=C/[C@H]1OC(=O)C[C@]12C[C@H](OC(=O)Cc1ccc(Cl)cc1Cl)C=CC2=O | 35.4 µM | 15.6 µM | 19 µM | 8.23 µM |  |  |  |  |  |  |  | 
8 | COc1ccccc1C(=O)Nc1ccc(CC(=O)O[C@@H]2C=CC(=O)[C@@]3(CC(=O)O[C@@H]3/C=C(\C)CCC=C(C)C)C2)cc1 | 0.54 µM | 1.56 µM | 1.29 µM | 0.67 µM |  |  |  |  |  |  |  | 
9 | CCC/C=C/C(=O)O[C@@H]1C=CC(=O)[C@@]2(CC(=O)O[C@@H]2/C=C(\C)CCC=C(C)C)C1 | 12.4 µM | 19.2 µM | 43.6 µM | 11 µM |  |  |  |  |  |  |  | 
10 | CC(C)=CCC/C(C)=C/[C@H]1OC(=O)C[C@]12C[C@H](OC(=O)Cc1ccc3c(c1)OCO3)C=CC2=O | 2.77 µM | 6.81 µM | 2.23 µM | 3.38 µM |  |  |  |  |  |  |  | 
11 | CC(C)=CCC/C(C)=C/[C@H]1OC(=O)C[C@]12C[C@H](OC(=O)CNC(=O)OC(C)(C)C)C=CC2=O | 3.2 µM | 2.11 µM | 1.66 µM | 1.14 µM |  |  |  |  |  |  | 2.7 | 1.5
12 | CC(C)=CCC/C(C)=C/[C@H]1OC(=O)C[C@]12C[C@H](OC(=O)Cc1ccc(NC(=O)/C=C/c3ccccc3)cc1)C=CC2=O | 0.44 µM | 0.99 µM | 0.85 µM | 0.22 µM |  |  |  |  |  |  |  | 
13 | CC(C)=CCC/C(C)=C/[C@H]1OC(=O)C[C@]12C[C@H](OC(=O)c1csc(Br)n1)C=CC2=O | 2.06 µM | 5.03 µM | 3.43 µM | 0.62 µM |  |  |  |  |  |  | 5 | 
14 | CC(C)=CCC/C(C)=C/[C@H]1OC(=O)C[C@]12C[C@H](OC(=O)Cc1ccc(NC(=O)[C@H](Cl)c3ccccc3)cc1)C=CC2=O | 0.42 µM | 1.04 µM | 0.63 µM | 0.58 µM |  |  |  |  |  |  |  | 
15 | CC(C)=CCC/C(C)=C/[C@H]1OC(=O)C[C@]12C[C@H](OC(=O)Cc1ccc(NC(=O)c3ccccc3Cl)cc1)C=CC2=O | 0.58 µM | 2.48 µM | 0.96 µM | 0.84 µM |  |  |  |  |  |  |  | 
16 | COC(=O)C[C@@]12C[C@@H](C=CC1=O)O[C@@H]2/C=C(\C)CCC=C(C)C | 1.91 µM | 5.33 µM | 9.54 µM | 0.98 µM |  |  |  |  |  |  |  | 
17 | CC(=O)Nc1ccc(CC(=O)O[C@@H]2C=CC(=O)[C@@]3(CC(=O)O[C@@H]3/C=C(\C)CCC=C(C)C)C2)cc1 | 2.16 µM | 7.01 µM | 4.73 µM | 4.19 µM |  |  |  |  |  |  |  | 
18 | C=CC(=O)Nc1ccc(CC(=O)O[C@@H]2C=CC(=O)[C@@]3(CC(=O)O[C@@H]3/C=C(\C)CCC=C(C)C)C2)cc1 | 1.62 µM | 8.71 µM | 4.54 µM | 3.11 µM |  |  |  |  |  |  |  | 
19 | CC(C)=CCC/C(C)=C/[C@H]1OC(=O)C[C@]12C[C@H](OC(=O)Cc1cccs1)C=CC2=O | 4.14 µM | 10.1 µM | 4.82 µM | 2.46 µM |  |  |  |  |  |  |  | 
20 | CC(C)=CCC/C(C)=C/[C@H]1OC(=O)C[C@]12C[C@H](OC(=O)Cc1ccc(F)cc1)C=CC2=O | 7.48 µM | 3.03 µM | 5 µM | 2.22 µM |  |  |  |  |  |  |  | 
21 | COc1cccc(OC)c1C(=O)Nc1ccc(CC(=O)O[C@@H]2C=CC(=O)[C@@]3(CC(=O)O[C@@H]3/C=C(\C)CCC=C(C)C)C2)cc1 | 0.78 µM | 2.09 µM | 1.3 µM | 1.45 µM |  |  |  |  |  |  |  | 
22 | CC(C)=CCC/C(C)=C/[C@H]1OC(=O)C[C@]12C[C@H](OC(=O)Cc1ccc(NC(=O)c3cccs3)cc1)C=CC2=O | 0.46 µM | 2.24 µM | 1.63 µM | 0.64 µM |  |  |  |  |  |  |  | 
23 | CC(C)=CCC/C(C)=C/[C@H]1OC(=O)C[C@]12C[C@H](OC(=O)Cc1ccc(NC(=O)OC(C)(C)C)cc1)C=CC2=O | 1.03 µM | 2.03 µM | 0.46 µM | 1.32 µM |  |  |  |  |  |  |  | 
24 | CC(C)=CCC/C(C)=C/[C@H]1OC(=O)C[C@]12C[C@H](OC(=O)Cc1ccc(NC(=O)C3CC3)cc1)C=CC2=O | 0.56 µM | 2.3 µM | 1.09 µM | 0.23 µM |  |  |  |  |  |  |  | 
25 | CC(C)=CCC/C(C)=C/[C@H]1OC(=O)C[C@]12C[C@H](OC(=O)c1cc3ccccc3n1C)C=CC2=O | 1.34 µM | 10.4 µM | 2.51 µM | 1.22 µM |  |  |  |  |  |  |  | 
26 | CC(C)=CCC/C(C)=C/[C@H]1OC(=O)C[C@]12C[C@H](OC(=O)CCC(=O)NCC1CC3C=CC1C3)C=CC2=O (stereo not given in full) | 1.34 µM | 3.31 µM | 3.33 µM | 1.55 µM |  |  |  |  |  |  |  | 
27 | CC(C)=CCC/C(C)=C/[C@H]1OC(=O)C[C@]12C[C@H](OC(=O)Cc1ccc(NC(=O)c3ccccc3)cc1)C=CC2=O | 0.73 µM | 0.39 µM | 2.22 µM | 0.37 µM |  |  |  |  |  |  |  | 
28 | CC(C)=CCC/C(C)=C/[C@H]1OC(=O)C[C@]12C[C@H](O)C=CC2=O | 4.68 µM | 4.85 µM | 4.19 µM | 3.04 µM |  |  |  |  |  |  |  | 
29 | COC(=O)C[C@@]1([C@H](O)/C=C(\C)CCC=C(C)C)C[C@H](O)C=CC1=O [(+)-MILIUSANE XVIII] | 4.23 µM | 4.21 µM | 8.14 µM | 2.26 µM |  |  |  |  |  |  |  | 
